Where “and” joins values, the source holds several entries; their conditions need not be identical. Identical values can stand only once. Numbers after ± are expanded uncertainties.
Details: Liquid, Closed cell (Static) method

NCCOCCOCCN [1,2-bis(2-aminoethoxy)ethane]
Details	vapor or sublimation pressure [kPa]
292.92 K	0.00358 ± 0.00027
302.88 K	0.00757 ± 0.00054
312.87 K	0.0156 ± 0.0011
322.91 K	0.0297 ± 0.0019
332.89 K	0.0545 ± 0.0034
342.89 K	0.104 ± 0.007
353.02 K	0.184 ± 0.011

OCCNCc1ccccc1 [2-benzylaminoethanol]
Details	vapor or sublimation pressure
292.82 K	0.000782 ± 0.00011 kPa
312.85 K	0.0052 ± 0.00038 kPa
332.88 K	0.0271 ± 0.0018 kPa
332.89 K	0.027 ± 0.0018 kPa
352.92 K	0.114 ± 0.007 kPa
362.91 K	0.239 ± 0.015 kPa and 0.231 ± 0.014 kPa

CN1CCOCC1 [N-methylmorpholine]
Details	vapor or sublimation pressure
273.18 K	6.9 ± 0.41 kPa
283.12 K	12.94 ± 0.78 kPa and 12.93 ± 0.78 kPa
293.06 K	23.06 ± 1.4 kPa
303.04 K	39.34 ± 2.4 kPa
313.05 K	64.46 ± 3.9 kPa
323.08 K	101.73 ± 6.1 kPa
333.07 K	155.32 ± 9.3 kPa
343.08 K	230.31 ± 14 kPa
353.08 K	332.76 ± 20 kPa

CN(C)CCN(C)C [N,N,N',N'-tetramethyl-1,2-diaminoethane]
Details	vapor or sublimation pressure [kPa]
294.75 K	1.766 ± 0.11
304.74 K	3.055 ± 0.18
314.76 K	5.055 ± 0.3
324.95 K	8.115 ± 0.49
334.99 K	12.53 ± 0.75
344.96 K	19.34 ± 1.2
354.98 K	28.12 ± 1.7
364.97 K	40.04 ± 2.4
